Assay results taken from patent publication US11326165B1, “Methods and compositions for modulating splicing” (SKYHAWK THERAPEUTICS, INC., priority 2017, dated 2022).

Legend:
A673 cells = experiment: Cell viability and proliferation, A673 cells (crystal violet); assay type: cell-based; conditions: cell proliferation IC50 in NHDF cells over A673 cells, 72 h
Description: Small molecule splicing modulators were tested in a dose-response assay using A673 cells and NHDF cells.
A673 cells or NHDF cells were first plated in 96-well plastic tissue culture plates (10,000 cells per well). The cells were treated with vehicle alone (DMSO), or increasing concentrations of SMSM compounds for 72 h. Following treatment, cell proliferation was determined using a crystal violet assay. The relative cell proliferation at each concentration was determined.

A673 xenografts = A673 xenografts in nude mice, tumor growth inhibition; assay type: in vivo; conditions: A673 xenograft (FIGS. 14A-C)
Description: Dose range and time course studies comparing anti-neoplastic effects of SMSM−167 and SMSM−151 against vehicle were conducted.
Female NCrNu mice were used. Age range of enrolment was 7-10 weeks. A total of 75 animals were for the studies.
The A673 tumor cell line was maintained in vitro as a monolayer culture. […] The cells growing in an exponential growth phase were harvested and counted for tumor inoculation.
Each mouse were inoculated into a right flank with the single cell suspension of 95% viable tumor cells (5×10^6 cells/mouse) in serum-free RPMI 1640 Media for tumor development. Treatments were administered when mean tumor size reached approximately 75 mm^3.
Before commencement of treatment, all animals were weighed and assigned to treatment groups using a randomization procedure. Mice were randomized into groups based upon their tumor sizes to ensure that each group had approximately the same mean tumor size and range of tumor size.
After inoculation, the animals were checked daily for morbidity and mortality. At the time of routine monitoring, the animals were checked for any effects of tumor growth on normal behavior such as mobility, food and water consumption, body weight gain/loss, eye/hair matting and any other abnormal effects. Deaths and observed clinical signs were recorded.
Body weight were measured prior to tumor inoculation and prior to the treatment administration and then daily. Tumor size were measured 2-3 times per week in two dimensions using a caliper, and the volume were expressed in mm^3 using the formula: V=0.5×a×b^2 where a and b are the long and short diameters of the tumor, respectively.
(§1) Studies were terminated when the tumor size in the vehicle treated group reached 2,000 mm^3. Each mouse was bled at 2 hrs after the last dose and at least 50 μl of plasma were collected from each mouse. All of the collected plasma samples and retainer dosing solutions for each dose level were used for bioanalytical measurements. All tumors were also collected and weighed. One necrosis-free tumor fragment of approximately 50 mg was taken from each tumor and flash-frozen for RNA isolation. The remaining tumor was flash frozen for PK analysis.
Studies were performed to assess the effects of in vivo SMSM treatment on glioblastoma, breast, pancreatic, prostate, melanoma, lymphoma and Ewing sarcoma tumors. Studies were also performed to assess the effects of in vivo SMSM treatment on mRNA levels. Immunocompromised nude mice with pre-existing glioblastoma, breast, pancreatic, prostate, melanoma, lymphoma and Ewing sarcoma xenografts were treated with vehicle or SMSMs. Tumor tissues from subcutaneous xenografts were broken into a powder using a BioPulverizer (Biospec Products, Inc.). After SMSM treatment, mRNA was isolated from the xenografts and was analyzed by qRT-PCR.
as §1, with “Tumor size was measured 2 times per week in two dimensions using a caliper. Studies” for “Studies”, “plasma was” for “plasma were”
The effects of in vivo SMSM treatments on pre-existing subcutaneous glioblastoma, breast, pancreatic, prostate, melanoma, lymphoma and Ewing sarcoma xenografts were assessed. For these in vivo experiments, 1×10^6Raji, A375, A673, MDA-MB-231, BxPC-3, PC-3 or U87 (cells re-suspended in 100 μl PBS were subcutaneously injected into the flanks of nude mice. When the tumor reached approximately 100 mm^3 (volume=(¾)(π)(length/2)(width/2)^2), the treatments indicated in the tables below were initiated. […]

[1] = Maximum tolerable dose study (survival, body weight); assay type: in vivo; conditions: mice
Description: Survival of mice after administration of SMSMs after 10 or 11 days was assessed.
Tolerance of the drug treatments was determined by measuring the weight of the mice during the period of drug administration. Body weight was measured prior to tumor inoculation and prior to the treatment administration and then daily. The changes in the final weight of the mice for the SMSM treatments were determined.

FoxM1 BC mRNA = experiment: FoxM1 splicing in cells: FoxM1 BC mRNA decrease (exon included); assay type: cell-based; conditions: read-out: Splice IC50 (nM) FoxM1 BC mRNA decrease (exon included)
Description: (§2) FIG. 7 depicts a graph of relative transcript levels of FOXM1 isoform A (represses cancer) and FOXM1 isoform B (promotes cancer) in A-673 cells incubated with the indicated concentrations of an SMSM.

A-673 cells = experiment: A-673 cell viability; assay type: cell-based; conditions: Homo sapiens, A673
Description: FIG. 9A depicts a graph of viable A-673 cells when incubated with the indicated concentrations of an SMSM.

FoxM1 A mRNA = experiment: FoxM1 splicing in cells: FoxM1 A mRNA increase (exon excluded); assay type: cell-based; conditions: read-out: Splice EC50 (nM) FoxM1 A mRNA increase (exon excluded)
Description: as §2

IKBKAP = IKBKAP splicing assay (IKBKAP^FL and IKBKAP^Δ20 mRNA, qPCR); assay type: cell-based; conditions: 24 hours
Description: Various cells lines were treated with the SMSMs described herein. RNA was then isolated, cDNA synthesized, qPCR performed and the levels of IKBKAP targets of the SMSMs were detemined.
On the day of the experiment, a 96-well plate was seeded with the cell lines of interest. The cells were diluted with full growth media to a concentration of 2.0×10^5 cells/mL and 100 μL of cells were added to each well (20,000 cells per well). The cells were treated with a compound immediately after plating.
The compounds were then added to the cell plate using the HP compound dispenser. In the initial experiment, atop concentration of 10 μM and an 8 point 4-fold dilution scheme was used. […]
The qPCR was performed using a QuantStudio 6 instrument (ThermoFisher) and the following cycling conditions and according to the tables below. All samples and standards were analyzed in triplicate. […]
The determined IKBKAP^FL and IKBKAP^Δ20 isoform quantities were then used to determine the IKBKAP^FL: IKBKAP^Δ20 ratio at increasing SMSM compound concentrations. The PPIA quantities were used in the normalization to account of cell proliferation effects of the compounds.
An assay to measure the IKBKAP^FL mRNA and IKBKAP^Δ20 mRNA simultaneously in cell wells was performed. The RNA values were measured relative to DMSO control and also included a housekeeping gene, PPIA to ensure data was consistent. […]

CN(c1ccc(-c2cc(F)c(-c3cn[nH]c3)cc2O)nn1)[C@H]1C[C@]2(C)CC[C@](C)(C1)N2 [compound 167, 2-(6-(((1R,3s,5S)-1,5-dimethyl-8-azabicyclo[3.2.1]octan-3-yl)(methyl)amino)pyridazin-3-yl)-4-fluoro-5-(1H-pyrazol-4-yl)phenol]
Ratio NHDF/A673 IC50 (A673 cells): >2,500 | TGI(%) (A673 xenografts; 5 mg/kg BID PO, Day 7): 65.56% | TGI(%) (A673 xenografts; 5 mg/kg BID PO, Day 11): 56.92% | TGI(%) (A673 xenografts; 5 mg/kg BID PO, Day 14): 55.14% | TGI(%) (A673 xenografts; 5 mg/kg BID PO, Day 18): 59.68% | TGI(%) (A673 xenografts; 7.5 mg/kg BID PO, Day 7): 59.45% | TGI(%) (A673 xenografts; 7.5 mg/kg BID PO, Day 11): 64.75% | TGI(%) (A673 xenografts; 7.5 mg/kg BID PO, Day 14): 64.43% | TGI(%) (A673 xenografts; 7.5 mg/kg BID PO, Day 18): 72.80% | TGI(%) (A673 xenografts; 10 mg/kg QD PO, Day 7): −32.72% | TGI(%) (A673 xenografts; 10 mg/kg QD PO, Day 11): 3.85% | TGI(%) (A673 xenografts; 10 mg/kg QD PO, Day 14): −2.13% | TGI(%) (A673 xenografts; 10 mg/kg QD PO, Day 18): 41.77% | Outcome ([1]; IP, 0.1 mg/kg, BIDx12): All survived | Outcome ([1]; IP, 0.3 mg/kg, BIDx12): All survived | Outcome ([1]; IP, 1 mg/kg, QDx12): All survived | Outcome ([1]; PO, 5 mg/kg, QDx12): All survived

Oc1cc(C2C=NN=N2)ccc1-c1ccc(O[C@@H]2C[C@H]3CC[C@@H](C2)N3)nn1 (stereo partly drawn) [compound 253, 2-(6-(((1R,3s,5S)-8-azabicyclo[3.2.1]octan-3-yl)oxy)pyridazin-3-yl)-5-(1H-1,2,3-triazol-4-yl)phenol]
IC50 (FoxM1 BC mRNA): 251 to 500 nM | IC50 (A-673 cells): 501 to 1000 nM | EC50 (FoxM1 A mRNA): 251 to 500 nM

Oc1cc(-c2cn[nH]c2)ccc1-c1ccc(O[C@@H]2C[C@H]3CCC[C@@H](C2)N3)nn1 [compound 276, 2-(6-(((1R,3s,5S)-9-azabicyclo[3.3.1]nonan-3-yl)oxy)pyridazin-3-yl)-5-(1H-pyrazol-4-yl)phenol]
IC50 (A-673 cells): 101 to 250 nM

Oc1cc(-c2cn[nH]c2)ccc1-c1ccc(O[C@H]2C[C@H]3CCC[C@@H](C2)N3)nn1 [compound 277, 2-(6-(((1R,3r,5S)-9-azabicyclo[3.3.1]nonan-3-yl)oxy)pyridazin-3-yl)-5-(1H-pyrazol-4-yl)phenol]
IC50 (FoxM1 BC mRNA): > 1000 nM | IC50 (A-673 cells): > 1000 nM | EC50 (FoxM1 A mRNA): > 1000 nM

Oc1cc(-c2cn[nH]c2)c(F)cc1-c1ccc(O[C@@H]2C[C@H]3CCC[C@@H](C2)N3)nn1 [compound 278, 2-(6-(((1R,3s,5S)-9-azabicyclo[3.3.1]nonan-3-yl)oxy)pyridazin-3-yl)-4-fluoro-5-(1H-pyrazol-4-yl)phenol]
EC50 (IKBKAP; IKBKAP^FL mRNA increase): 101 to 350 nM | IC50 (IKBKAP; IKBKAP^Δ20 mRNA decrease): < 200 nM
